According to US20140105891A1, “TREATMENT OF CANCER” (CERULEAN PHARMA INC., priority 2012, published 2014):

How the values were obtained:
[1] = tested on: H1299 human NSCLC xenograft; assay: H1299 NSCLC xenograft tumor growth delay; settings: for median tumor volume (MTV) of survivors: D74 survivors, Gemcitabine 120 mg/kg; for tumor-free survival (TFS): CRLX101 10 mg/kg qwk×3, marketed drugs on optimal preclinical regimens
Protocol: H1299 cells were obtained from the American Type Culture Collection (ATCC), and the tumor line was maintained by serial engraftment in nude mice.
Body weight was measured daily on Days 1-5, then twice weekly until the completion of the study. Tumor volume was measured twice weekly and each animal was euthanized when the calculated tumor volume reached the 2000 mm^3 endpoint, or on day-88 post implantation, whichever came first.

HIF-1α = HIF-1α levels in A2780 xenograft after CRLX101 and Bevacizumab (Western blot); format: in vivo, mouse; settings: CRLX101 5 mg/kg i.v. q7d×2, Bevacizumab 5 mg/kg i.p. Day 1, 4, 8, tumors Day 11
Protocol: (§1) Tumor samples were collected on Day 11, 72 hours after the last treatment (Day 8 for both drugs) and analyzed for HIF-1α and HIF-2α levels using Western blot.

[2] = tested on: A2780 Ovarian Xenograft Tumors; assay: A2780 ovarian xenograft tumor growth / response rate; format: in vivo, mouse; settings: A2780, Day 42; CRLX101 5 mg/kg IV q7d×3; Bevacizumab 5 mg/kg i.p. biweekly×3; combination at same doses
HIF-2α = HIF-2α levels in A2780 xenograft after CRLX101 and Bevacizumab (Western blot); format: in vivo, mouse; settings: CRLX101 5 mg/kg i.v. q7d×2, Bevacizumab 5 mg/kg i.p. Day 1, 4, 8, tumors Day 11
Protocol: as §1

CC(=O)O[C@@]12CO[C@@H]1C[C@H](O)[C@@]1(C)C(=O)[C@H](O)C3=C(C)[C@@H](OC(=O)[C@H](O)[C@@H](NC(=O)OC(C)(C)C)c4ccccc4)C[C@@](O)([C@@H](OC(=O)c4ccccc4)[C@H]21)C3(C)C [Docetaxel]
survival ([1]; 74 days post first treatment, docetaxel 30 mg/kg qwk×3): 20% | median tumor volume (MTV) of survivors ([1]; Docetaxel 30 mg/kg): 302 mm3 | group mean body weight loss ([1]; Docetaxel 30 mg/kg, on D21): 9.3%

Nc1ccn([C@@H]2O[C@H](CO)[C@@H](O)C2(F)F)c(=O)n1 [Gemcitabine]
tumor-free survival (TFS) ([1]; 74 days post first treatment): 50% | median tumor volume (MTV) of survivors ([1]; Docetaxel 30 mg/kg): 0 mm3

Bevacizumab: antibody against VEGF
HIF-1α % of Control (HIF-1α): 157 % of Control | Partial Response (# of mice) [2]: 0 of 10 | HIF-2α % of Control (HIF-2α): 146 % of Control

CC[C@@]1(O)C(=O)OCc2c1cc1n(c2=O)Cc2cc3c(CN(C)C)c(O)ccc3nc2-1 [Topotecan]
tumor-free survival (TFS) ([1]; 74 days post first treatment): 10%
